# Source: US20110165145A1, “IGF-II/IGF-IIE BINDING PROTEINS” (priority 2008, published 2011)
# Assays:
# Hep3B cells = experiment: Hep3B anchorage dependent colony formation assay; format: cell-based; conditions: two concentrations; 10% FBS; 1 week
# Excerpt: Colonies>50 cells were scored in three independent experiments, each with triplicate dishes.
# [1] = system: IGF-II-induced IGF-1R phosphorylation in Hep3B cells; experiment: IGF-II-induced IGF-1R phosphorylation in Hep3B cells (IP/WB); format: cell-based
# Procedure: (§1) After being washed twice with ice-cold PBS containing 1 mM sodium orthovanadate, cells were lysed and immunoprecipitated with anti-IGF-IR antibody. Immunoprecipitated proteins were resolved in a 4-12% Bis-tris gel, and transferred to a PVDF membrane. The membrane was probed with anti-phospho-IGF-IR (p-IGF-1R) antibody first, and then stripped and re-probed with anti-IGF-IR antibody for detection of total IGF-1R proteins.
# [2] = system: IGF-II induced Colo205 cell proliferation; experiment: IGF-II induced Colo205 cell proliferation in serum free medium; format: cell-based; conditions: 2 nM IGF-II, 96 h
# Procedure: In this experiment, cells were cultured in serum free medium containing 2 nM IGF-II. […] Neutralizing IGF-II antibody (R&D Systems) was used at 333 nM as a positive control. […] IGF-II neutralizing antibody from R&D at 333 nM was used as a positive control. The plate was placed in a 37° C. incubator with 5% CO2 for 4 days. Proliferation was measured by CellTiter 96Aqueous One Solution Reagent (Promega).
# IGF-I = IGF-I (Homo sapiens, UniProt P05019); experiment: SPR affinity of DX-2647, IGF-I; conditions: 1:1 binding model
# Chain of IGF-I (P05019 49-118 limits assumed, species assumed): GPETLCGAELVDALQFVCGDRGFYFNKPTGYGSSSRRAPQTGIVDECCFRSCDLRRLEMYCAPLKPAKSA
# Excerpt: IGF-II and the related growth factor, IGF-I, share 70% homology at the amino acid level.
# IGF-II [3] = molecular target: T1, IGF-II (Homo sapiens, UniProt P01344); experiment: SPR assays of DX-2647 binding to IGF-II complexed with receptors/IGFBPs
# T1 construct: IGF-II (amino acids 1-67)
# T1 sequence (P01344 25-91): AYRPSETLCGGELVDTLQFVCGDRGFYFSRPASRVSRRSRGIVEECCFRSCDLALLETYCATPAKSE
# Excerpt: (§2) While the IGF-IR and IR-A are the principal mediators of the biological activity of IGF-II, the protein can bind with high affinity to a number of other proteins that include a family of six serum IGF-binding proteins (IGFBP 1-6), and the cell-surface mannose-6-phosphate receptor (IGF-IIR).
# IGF-IIE [4] = molecular target: T2, IGF-IIE (Homo sapiens, UniProt P01344); experiment: SPR assays of DX-2647 binding to IGF-IIE complexed with receptors/IGFBPs; conditions: FIGS. 5A and 5B
# T2 construct: the construct comprising amino acids 1-104, which encompass the E domain
# T2 sequence (P01344 25-128): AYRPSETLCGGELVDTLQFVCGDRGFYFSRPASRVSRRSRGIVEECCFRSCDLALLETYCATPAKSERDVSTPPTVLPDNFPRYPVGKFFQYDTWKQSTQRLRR
# Excerpt: as §2
# [5] = system: IGF-II-induced IGF-1R phosphorylation in HepG2 cells; experiment: IGF-II-induced IGF-1R phosphorylation in HepG2 cells (IP/WB); format: cell-based; conditions: 10 min
# Procedure: as §1
# [6] = system: IGF-I induced IGF-IR phosphorylation; experiment: IGF-I induced IGF-IR phosphorylation in Hep3B cells (IP/WB); format: cell-based; conditions: 10 nM DX-2647
# Procedure: as §1
# Colo205 cells = experiment: Colo205 cell proliferation in complete medium containing 10% FBS; format: cell-based; conditions: 2 μM, 4 days
# Procedure: The plate was placed in a 37° C. incubator with 5% CO2 for 4 days. Proliferation was measured by CellTiter 96Aqueous One Solution Reagent (Promega). […] Colo205 cells have two cell populations in culture vessels.
# [7] = system: IGF-IR phosphorylation in Colo205 cells; experiment: IGF-IR phosphorylation in Colo205 cells; format: cell-based
# Excerpt: Upon ligand binding, IGF-1R undergoes autophosphorylation on tyrosine residues of the two β-subunits.
# HepG2 cells = experiment: HepG2 anchorage dependent colony formation; format: cell-based; conditions: 1 nM; 10% FBS; 7 days
# Procedure: HepG2 cells were seeded into a 6-well plate at 1000 cells/well in 2 ml of culture medium containing 10% FBS. […] Isotype control IgG (Ctrl. IgG) was used at 100 nM. After incubation cells were fixed and stained with crystal violet blue. Five pictures were taken randomly from each well and data were analyzed using the MetaMorph software. The results are summarized graphically in FIG. 10.
# IGF-II [8] = molecular target: T1, IGF-II; experiment: SPR affinity of DX-2647 (IgG captured on anti-human Fc chip), IGF-II; conditions: 1:1 binding model
# [9] = system: human SKUT-1 myosarcoma cell; experiment: Cisplatin (CDDP)-induced cytotoxicity in SKUT-1 cells (CellTitreBlue); format: cell-based; conditions: 20% FCS, 48 hours
# IGF-IIE [10] = molecular target: T2, IGF-IIE; experiment: SPR affinity of DX-2647 (IgG captured on anti-human Fc chip), IGF-IIE; conditions: 1:1 binding model
# [11] = system: autocrine IGF-II induced IGF-1R phosphorylation in Hep3B cells; experiment: Autocrine (endogenous) IGF-II induced IGF-1R phosphorylation in Hep3B cells (IP/WB); format: cell-based; conditions: 10 nM, 48 h serum free
# Procedure: Hep3B cells synthesize and secrete IGF-II which in turn binds IGF-1R and induces IGF-1R phosphorylation in an autocrine fashion. The autocrine IGF-II induced IGF-1R phosphorylation can be detected by IP/WB analysis after 48 h serum starvation of cells. […] To perform the experiments, Hep3B cells were seeded and cultured for 24 h. […] After being washed twice with ice-cold PBS containing 1 mM sodium orthovanadate, cells were lysed and immunoprecipitated with anti-IGF-IR antibody. Immunoprecipitated proteins were resolved in a 4-12% Bis-tris gel, and transferred to a PVDF membrane. The membrane was probed with anti-phospho-IGF-IR (p-IGF-1R) antibody first, and then stripped and re-probed with anti-IGF-IR antibody for detection of total IGF-1R proteins.
# [12] = system: HepG2 human hepatoma cells; experiment: HepG2 anchorage-independent colony formation in soft agar; format: cell-based; conditions: 10% FCS, two weeks
# Procedure: Cells were seeded in growth medium plus 10% FCS in soft agar in the presence of increasing concentrations of antibody. Colonies>50 cells were counted after two weeks. […]
# [13] = system: human breast cancer cells; conditions: immunodeficient mice; cited from earlier work
substance,measurement,setting,value
DX-2647: IGF II/IGF IIE inhibitory antibody germlined from 566A-M0064-F02 parental clone; SEQ ID NO: 59 and 60,inhibition of colony formation of Hep3B cells,Hep3B cells,inhibited colony formation in a dose-dependent manner
same,inhibition of IGF-II-induced IGF-1R phosphorylation,[1]; 0.1 nM DX-2647,partial inhibition
same,inhibition of IGF-II-induced IGF-1R phosphorylation,[1]; 1 nM DX-2647,complete inhibition
same,inhibition of IGF-II induced Colo205 cell proliferation,[2],inhibited
same,lowest concentration showing maximum potency in inhibiting IGF-II stimulated Colo205 proliferation,[2]; 1 nM to 100 nM tested,10 nM
same,ka IGF-I,IGF-I,5.8e+06 M⁻¹ s⁻¹
same,kd IGF-I,IGF-I,0.1 s⁻¹
same,ability to bind IGF-II complexed with the IGFBPs assayed,IGF-II [3]; FIGS. 5A and 5B,inhibited
same,blocking of IGF-II binding to all three cell-surface receptors for IGF-II,IGF-II [3]; FIGS. 5A and 5B,blocks the binding
same,binding to IGFBP-1 alone,"IGF-II [3]; Fc-captured antibody, FIG. 5A",does not bind
same,binding to free IGF-II,"IGF-II [3]; Fc-captured antibody, FIG. 5A",binds free IGF-II
same,binding to pre-formed complex of IGF-II and IGFBP-1,"IGF-II [3]; Fc-captured antibody, FIG. 5A",does not bind
same,ability to bind IGF-IIE complexed with the IGFBPs assayed,IGF-IIE [4],inhibited
same,blocking of IGF-IIE binding to all three cell-surface receptors for IGF-II,IGF-IIE [4],blocks the binding
same,inhibition of IGF-II-induced IGF-1R phosphorylation,"[5]; 0.3 nM DX-2647, IGF-II 2.6 nM",Partial inhibition
same,inhibition of IGF-II-induced IGF-1R phosphorylation,"[5]; 3 nM DX-2647, IGF-II 2.6 nM",complete inhibition
same,inhibition of IGF-I induced IGF-IR phosphorylation,[6],failed to show significant inhibition
same,inhibition of Colo205 proliferation in complete growth medium,Colo205 cells,significantly inhibited
same,effective concentration for inhibition of IGF-IR phosphorylation,[7],10 nM
same,inhibition of colony-forming ability of HepG2 cells,HepG2 cells,significantly inhibited
same,ka IGF-II,IGF-II [8],1.06 E6 M-1s-1
same,kd IGF-II,IGF-II [8],2.38 E-5 s-1
same,enhancement of cisplatin (CDDP)-induced cellular cytotoxicity,[9],potently enhanced
same,ka IGF-IIE,IGF-IIE [10],2.06 E6 M-1s-1
same,kd IGF-IIE,IGF-IIE [10],less than 2 E-5 s-1
same,inhibition of autocrine IGF-II induced IGF-1R phosphorylation,[11],significant inhibitory effect
same,inhibition of HepG2 colony formation in soft agar,[12],strongly inhibited
same,IC50,"[12]; ±0.74 standard error, read-out: mean IC50, anchorage-independent growth of HepG2 cells",1.5 nM
"pegvisomant: PEGylated analog of human growth hormone, 191 amino acid residues, acting as GH receptor antagonist",growth of human breast cancer cells grown as xenografts,[13],inhibits the growth
